According to ChEMBL document CHEMBL4715724, “Novel 5-substituted-2-anilinoquinolines with 3-(morpholino or 4-methylpiperazin-1-yl)propoxy moiety as broad spectrum antiproliferative agents: Synthesis, cell based assays and kinase screening” (Bioorg Med Chem Lett, 2016):

Key:
[1] = test system: CCRF-CEM; assay: cells; format: functional; settings: Homo sapiens, time 48 hrs
Description: Growth inhibition of human CCRF-CEM cells incubated for 48 hrs by sulforhodamine B assay

[2] = test system: K562; assay: cells; format: functional; settings: Homo sapiens, time 48 hrs
Description: Growth inhibition of human K562 cells incubated for 48 hrs by sulforhodamine B assay

[3] = test system: A549; assay: cells; format: functional; settings: Homo sapiens, time 48 hrs
Description: Growth inhibition of human A549/ATCC cells incubated for 48 hrs by sulforhodamine B assay

[4] = test system: HOP-62; assay: cells; format: functional; settings: Homo sapiens, time 48 hrs
Description: Growth inhibition of human HOP-62 cells incubated for 48 hrs by sulforhodamine B assay

[5] = test system: HOP-92; assay: cells; format: functional; settings: Homo sapiens, time 48 hrs
Description: Growth inhibition of human HOP-92 cells incubated for 48 hrs by sulforhodamine B assay

[6] = test system: NCI-H226; assay: cells; format: functional; settings: Homo sapiens, time 48 hrs
Description: Growth inhibition of human NCI-H226 cells incubated for 48 hrs by sulforhodamine B assay

[7] = test system: NCI-H23; assay: cells; format: functional; settings: Homo sapiens, time 48 hrs
Description: Growth inhibition of human NCI-H23 cells incubated for 48 hrs by sulforhodamine B assay

[8] = test system: NCI-H322M; assay: cells; format: functional; settings: Homo sapiens, time 48 hrs
Description: Growth inhibition of human NCI-H322M cells incubated for 48 hrs by sulforhodamine B assay

[9] = test system: NCI-H460; assay: cells; format: functional; settings: Homo sapiens, time 48 hrs
Description: Growth inhibition of human NCI-H460 cells incubated for 48 hrs by sulforhodamine B assay

[10] = test system: NCI-H522; assay: cells; format: functional; settings: Homo sapiens, time 48 hrs
Description: Growth inhibition of human NCI-H522 cells incubated for 48 hrs by sulforhodamine B assay

[11] = test system: HCT-116; assay: cells; format: functional; settings: Homo sapiens, time 48 hrs
Description: Growth inhibition of human HCT-116 cells incubated for 48 hrs by sulforhodamine B assay

[12] = test system: HCT-15; assay: cells; format: functional; settings: Homo sapiens, time 48 hrs
Description: Growth inhibition of human HCT-15 cells incubated for 48 hrs by sulforhodamine B assay

[13] = test system: HT-29; assay: cells; format: functional; settings: Homo sapiens, time 48 hrs
Description: Growth inhibition of human HT-29 cells incubated for 48 hrs by sulforhodamine B assay

[14] = test system: KM12; assay: cells; format: functional; settings: Homo sapiens, time 48 hrs
Description: Growth inhibition of human KM12 cells incubated for 48 hrs by sulforhodamine B assay

[15] = test system: SF-295; assay: cells; format: functional; settings: Homo sapiens, time 48 hrs
Description: Growth inhibition of human SF-295 cells incubated for 48 hrs by sulforhodamine B assay

[16] = test system: U-251; assay: cells; format: functional; settings: Homo sapiens, time 48 hrs
Description: Growth inhibition of human U-251 cells incubated for 48 hrs by sulforhodamine B assay

[17] = test system: LOX IMVI; assay: cells; format: functional; settings: Homo sapiens, time 48 hrs
Description: Growth inhibition of human LOX IMVI cells incubated for 48 hrs by sulforhodamine B assay

[18] = test system: SK-MEL-28; assay: cells; format: functional; settings: Homo sapiens, time 48 hrs
Description: Growth inhibition of human SK-MEL-28 cells incubated for 48 hrs by sulforhodamine B assay

[19] = test system: UACC-257; assay: cells; format: functional; settings: Homo sapiens, time 48 hrs
Description: Growth inhibition of human UACC-257 cells incubated for 48 hrs by sulforhodamine B assay

[20] = test system: UACC-62; assay: cells; format: functional; settings: Homo sapiens, time 48 hrs
Description: Growth inhibition of human UACC-62 cells incubated for 48 hrs by sulforhodamine B assay

[21] = test system: IGROV-1; assay: cells; format: functional; settings: Homo sapiens, time 48 hrs
Description: Growth inhibition of human IGROV-1 cells incubated for 48 hrs by sulforhodamine B assay

[22] = test system: OVCAR-3; assay: cells; format: functional; settings: Homo sapiens, time 48 hrs
Description: Growth inhibition of human OVCAR-3 cells incubated for 48 hrs by sulforhodamine B assay

[23] = test system: OVCAR-4; assay: cells; format: functional; settings: Homo sapiens, time 48 hrs
Description: Growth inhibition of human OVCAR-4 cells incubated for 48 hrs by sulforhodamine B assay

[24] = test system: OVCAR-8; assay: cells; format: functional; settings: Homo sapiens, time 48 hrs
Description: Growth inhibition of human OVCAR-8 cells incubated for 48 hrs by sulforhodamine B assay

[25] = test system: A498; assay: cells; format: functional; settings: Homo sapiens, time 48 hrs
Description: Growth inhibition of human A498 cells incubated for 48 hrs by sulforhodamine B assay

[26] = test system: RXF 393; assay: cells; format: functional; settings: Homo sapiens, time 48 hrs
Description: Growth inhibition of human RXF 393 cells incubated for 48 hrs by sulforhodamine B assay

[27] = test system: TK-10; assay: cells; format: functional; settings: Homo sapiens, time 48 hrs
Description: Growth inhibition of human TK-10 cells incubated for 48 hrs by sulforhodamine B assay

[28] = test system: UO-31; assay: cells; format: functional; settings: Homo sapiens, time 48 hrs
Description: Growth inhibition of human UO-31 cells incubated for 48 hrs by sulforhodamine B assay

[29] = test system: PC-3; assay: cells; format: functional; settings: Homo sapiens, time 48 hrs
Description: Growth inhibition of human PC-3 cells incubated for 48 hrs by sulforhodamine B assay

[30] = test system: MCF7; assay: cells; format: functional; settings: Homo sapiens, time 48 hrs
Description: Growth inhibition of human MCF7 cells incubated for 48 hrs by sulforhodamine B assay

[31] = test system: MDA-MB-231; assay: cells; format: functional; settings: Homo sapiens, time 48 hrs
Description: Growth inhibition of human MDA-MB-231/ATCC cells incubated for 48 hrs by sulforhodamine B assay

[32] = test system: Hs-578T; assay: cells; format: functional; settings: Homo sapiens, time 48 hrs
Description: Growth inhibition of human Hs-578T cells incubated for 48 hrs by sulforhodamine B assay

[33] = test system: MDA-MB-468; assay: cells; format: functional; settings: Homo sapiens, time 48 hrs
Description: Growth inhibition of human MDA-MB-468 cells incubated for 48 hrs by sulforhodamine B assay

[34] = Cytotoxicity against human HFF-1 cells assessed as cell growth inhibition at 10 uM by MTT assay relative to control; format: cell-based; settings: read-out: GI
[35] = Cytotoxicity against human HFF-1 cells assessed as cell growth inhibition at 1 uM by MTT assay relative to control; format: cell-based; settings: read-out: GI
[36] = Cytotoxicity against human HFF-1 cells assessed as cell growth inhibition at 0.1 uM by MTT assay relative to control; format: cell-based; settings: read-out: GI
[37] = Cytotoxicity against human HFF-1 cells assessed as cell growth inhibition by MTT assay; format: cell-based
[38] = test system: LOX IMVI; assay: Growth inhibition of human LOX IMVI cells assessed as growth percentage at 10 uM measured after 48 hrs by sulforhodamine B assay relative to control; format: functional; settings: read-out: Activity
[39] = test system: Panel leukemia (Carcinoma cell lines); assay: cells; format: functional; settings: Homo sapiens, time 48 hrs
Description: Growth inhibition of human Panel leukemia (Carcinoma cell lines) incubated for 48 hrs by sulforhodamine B assay

[40] = cells; format: functional; settings: Homo sapiens, Non-small cell lung cancer cell line; time 48 hrs
Description: Growth inhibition of human Non-small cell lung cancer cell line incubated for 48 hrs by sulforhodamine B assay

[41] = test system: Panel colon (Carcinoma cell lines); assay: cells; format: functional; settings: Homo sapiens, time 48 hrs
Description: Growth inhibition of human Panel colon (Carcinoma cell lines) incubated for 48 hrs by sulforhodamine B assay

[42] = test system: Panel CNS (Carcinoma cell lines); assay: cells; format: functional; settings: Homo sapiens, time 48 hrs
Description: Growth inhibition of human Panel CNS (Carcinoma cell lines) incubated for 48 hrs by sulforhodamine B assay

[43] = test system: Panel melanoma (Carcinoma cell lines); assay: cells; format: functional; settings: Homo sapiens, time 48 hrs
Description: Growth inhibition of human Panel melanoma (Carcinoma cell lines) incubated for 48 hrs by sulforhodamine B assay

[44] = test system: Panel ovarian (Carcinoma cell lines); assay: cells; format: functional; settings: Homo sapiens, time 48 hrs
Description: Growth inhibition of human Panel ovarian (Carcinoma cell lines) incubated for 48 hrs by sulforhodamine B assay

[45] = test system: Panel renal (Carcinoma cell lines); assay: cells; format: functional; settings: Homo sapiens, time 48 hrs
Description: Growth inhibition of human Panel renal (Carcinoma cell lines) incubated for 48 hrs by sulforhodamine B assay

[46] = test system: Panel prostate (Carcinoma cell lines); assay: cells; format: functional; settings: Homo sapiens, time 48 hrs
Description: Growth inhibition of human Panel prostate (Carcinoma cell lines) incubated for 48 hrs by sulforhodamine B assay

[47] = test system: Panel breast (Carcinoma cell lines); assay: cells; format: functional; settings: Homo sapiens, time 48 hrs
Description: Growth inhibition of human Panel breast (Carcinoma cell lines) incubated for 48 hrs by sulforhodamine B assay

[48] = test system: Panel NCI-60 (60 carcinoma cell lines); assay: cells; format: functional; settings: Homo sapiens, time 48 hrs
Description: Growth inhibition of human Panel NCI-60 (60 carcinoma cell lines) incubated for 48 hrs by sulforhodamine B assay

[49] = test system: M14; assay: Growth inhibition of human M14 cells assessed as growth percentage at 10 uM measured after 48 hrs by sulforhodamine B assay relative to control; format: functional; settings: read-out: Activity
[50] = test system: SR; assay: cells; format: functional; settings: Homo sapiens, time 48 hrs
Description: Growth inhibition of human SR cells incubated for 48 hrs by sulforhodamine B assay

[51] = test system: SNB-75; assay: cells; format: functional; settings: Homo sapiens, time 48 hrs
Description: Growth inhibition of human SNB-75 cells incubated for 48 hrs by sulforhodamine B assay

[52] = read-out: LC50 (the source's name)

For `CN1CCN(CCCOc2cccc3nc(Nc4cc(Cl)cc(Cl)c4)ccc23)CC1`, the GI50 [1] was 1780 nM, the GI50 [2] was 1660 nM and the GI50 [3] was 1.98 µM. It also gave a GI50 [4] of 1.37 µM, a GI50 [5] of 1.59 µM and a GI50 [6] of 1.95 µM. The GI50 [7] was 1.72 µM, the GI50 [8] was 1.56 µM and the GI50 [9] was 1.84 µM. The GI50 [10] was 1.64 µM, the GI50 [11] was 1.94 µM and the GI50 [12] was 1420 nM. The GI50 [13] was 1410 nM, the GI50 [14] was 1.72 µM and the GI50 [15] was 1720 nM. The GI50 [16] was 1720 nM, the GI50 [17] was 1580 nM and the GI50 [18] was 1670 nM. It also gave a GI50 [19] of 1.97 µM, a GI50 [20] of 1950 nM and a GI50 [21] of 1.68 µM. The GI50 [22] was 1.68 µM, the GI50 [23] was 2.55 µM and the GI50 [24] was 1.94 µM. For the same compound, the GI50 [25] was 1.78 µM, the GI50 [26] was 1.67 µM and the GI50 [27] was 1.74 µM. The GI50 [28] was 1.49 µM, the GI50 [29] was 1.76 µM and the GI50 [30] was 1380 nM. The GI50 [31] was 1570 nM, the GI50 [32] was 2.5 µM and the GI50 [33] was 1.69 µM. For the same compound, the inhibition at 10 µM [34] was 13.3%, the inhibition at 1 µM [35] was 12% and the inhibition at 0.1 µM [36] was 12.5%. The GI50 [37] was greater than 10 µM, the growth at 10 µM [38] was -5.27% and the GI50 [39] was 1.8 µM. For the same compound, the LC50 (50% lethal concentration) [39] was 100 µM, the TGI [39] was 3.96 µM and the GI50 [40] was 1.71 µM. The LC50 (50% lethal concentration) [40] was 8.15 µM, the TGI [40] was 3.51 µM and the GI50 [41] was 1.68 µM. The TGI [41] was 3.19 µM, the CC50 [41, 52] was 6.1 µM and the GI50 [42] was 1.72 µM. It also gave a TGI [42] of 3.26 µM, a CC50 [42, 52] of 6.2 µM and a GI50 [43] of 1.8 µM. The LC50 [43] was 6.62 µM, the TGI [43] was 3.43 µM and the GI50 [44] was 1.87 µM. It also gave an LC50 [44] of 9.18 µM, a TGI [44] of 4.1 µM and a GI50 [45] of 2.07 µM. The LC50 (lethal concentration 50%) [45] was 17.1 µM, the TGI [45] was 5.56 µM and the GI50 [46] was 1.73 µM. The LC50 (concentration killing 50% of cells) [46] was 5.96 µM, the TGI [46] was 3.21 µM and the GI50 [47] was 2.06 µM. The TGI [47] was 5.67 µM, the CC50 [47, 52] was 21.8 µM and the GI50 [48] was 1.77 µM. The TGI [48] was 3.72 µM and the CC50 [48, 52] was 8.32 µM.

With `CC(C)c1ccc(Nc2ccc3c(OCCCN4CCOCC4)cccc3n2)cc1` the growth at 10 µM [49] was 59.8%.

`CC(C)c1ccc(Nc2ccc3c(OCCCN4CCN(C)CC4)cccc3n2)cc1` showed a GI50 [1] of 3740 nM, a GI50 [2] of 2050 nM and a GI50 [50] of 2850 nM. The GI50 [3] was 15.6 µM, the GI50 [4] was 11.9 µM and the GI50 [5] was 10.6 µM. For the same compound, the GI50 [6] was 18.8 µM, the GI50 [7] was 11.9 µM and the GI50 [8] was 11 µM. For the same compound, the GI50 [9] was 5.44 µM, the GI50 [10] was 19.9 µM and the GI50 [11] was 5.9 µM. For the same compound, the GI50 [12] was 1940 nM, the GI50 [13] was 2160 nM and the GI50 [14] was 11.3 µM. The GI50 [15] was 3630 nM, the GI50 [51] was 12.8 µM and the GI50 [16] was 3280 nM. For the same compound, the GI50 [17] was 1860 nM, the GI50 [18] was 1890 nM and the GI50 [19] was 5.65 µM. The GI50 [20] was 2170 nM, the GI50 [21] was 16.1 µM and the GI50 [22] was 14.4 µM. For the same compound, the GI50 [23] was 13.9 µM, the GI50 [24] was 17.8 µM and the GI50 [25] was 16.4 µM. For the same compound, the GI50 [26] was 7.28 µM, the GI50 [27] was 16.5 µM and the GI50 [28] was 12.9 µM. For the same compound, the GI50 [29] was 12.9 µM, the GI50 [30] was 3210 nM and the GI50 [31] was 2110 nM. The GI50 [32] was 16.9 µM, the GI50 [33] was 12.3 µM and the GI50 [39] was 4.24 µM. For the same compound, the GI50 [40] was 13.2 µM, the GI50 [41] was 4.85 µM and the GI50 [42] was 9.25 µM. For the same compound, the GI50 [43] was 6.62 µM, the GI50 [44] was 15.6 µM and the GI50 [45] was 13.2 µM. It also gave a GI50 [46] of 13.4 µM, a GI50 [47] of 9.95 µM and a GI50 [48] of 7.76 µM.
